{"source": "patent US20040110821A1", "about": "“GAL3 receptor antagonists for the treatment of affective disorders” (priority 2002, published 2004)", "key": {"[1]": {"biological_target": "T1, human GAL3 receptor (Homo sapiens, UniProt O60755)", "T1 construct": "expressed in transfected cells", "T1 sequence (O60755 1-368)": "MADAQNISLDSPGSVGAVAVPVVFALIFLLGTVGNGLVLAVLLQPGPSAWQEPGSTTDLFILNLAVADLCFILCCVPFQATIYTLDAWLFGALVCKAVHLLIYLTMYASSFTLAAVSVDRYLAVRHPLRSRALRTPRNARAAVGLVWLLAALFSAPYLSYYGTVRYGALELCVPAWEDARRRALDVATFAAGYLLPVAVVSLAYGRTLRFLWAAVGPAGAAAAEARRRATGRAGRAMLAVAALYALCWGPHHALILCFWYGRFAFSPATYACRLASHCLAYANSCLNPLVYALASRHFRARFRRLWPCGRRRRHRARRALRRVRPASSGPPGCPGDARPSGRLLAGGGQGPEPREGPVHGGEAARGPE", "assay": "Radioligand binding at cloned human GAL3 receptor", "conditions": "for Ki: read-out: hGAL3 Ki", "method": "The present invention provides for a method of determining the binding affinity of a GAL3 antagonist, wherein the GAL3 antagonist is dissolved in a “suitable solvent”. A “suitable solvent” means one which permits the measurement of binding affinity of the GAL3 antagonist to the human GAL3 receptor at concentrations less than 1 μM, preferably less than 100 nM. Examples of solvents include, but are not limited to, DMSO, ethanol, N,N-dimethylacetamide, or water. For indolones, the preferred solvent is 3% DMSO (final concentration in the assay). For pyrimidines, the preferred solvent is 1% ethanol/0.09% polypuronic acid F-127 (final concentration in the assay). For any other type of compounds, the preferred solvent is the solvent which permits the measurement of binding affinity of a GAL3 antagonist at the lowest concentration. Once a suitable solvent is ascertained for the binding assay of the human GAL3 receptor, the same solvent is used in assays to determine the binding affinity for instance, at the GAL1 receptor.\nThe binding properties of the pyrimidines of the present invention were evaluated at the cloned human galanin receptors, GAL1, GAL2, and GAL3, using protocols described herein.\nThe binding properties of the indolones of the present invention were evaluated at the cloned human galanin receptors, GAL1, GAL2, and GAL3, using protocols described herein.\nLM(tk-) cells were stably transfected with the human GAL1 or GAL3 receptor. CHO cells were stably transfected with the human GAL2 receptor.\ncDNAs for the human and rat GAL1, and human and rat GAL3 receptors were transfected with a G-418 resistant gene into the mouse fibroblast LM(tk-) cell line by a calcium phosphate transfection method (Cullen, 1967). Stably transfected cells were selected with G-418. Human and rat GAL2 receptors were similarly transfected into CHO cells.\nMembranes were harvested from stably transfected LM(tk-) cells. Adherent cells were washed twice in ice-cold phosphate buffered saline (138 mM NaCl, 8.1 mM Na2HPO4, 2.5 mM KCl, 1.2 mM KH2PO4, 0.9 mM CaCl2, 0.5 mM MgCl2, pH 7.4) and lysed by sonication in ice-cold sonication buffer (20 mM Tris-HCl, 5 mM EDTA, pH 7.7). Large particles and debris were cleared by low speed centrifugation (200×g, 5 min, 4° C.). Membranes were collected from the supernatant fraction by centrifugation (32,000×g, 18 min, 4° C.), washed with ice-cold hypotonic buffer, and collected again by centrifugation (32,000×g, 18 min, 4° C.). The final membrane pellet was resuspended by sonication into a small volume of ice-cold binding buffer (−1 ml for every 5 plates: 10 mM NaCl, 20 mM HEPES, 0.22 mM KH2PO4, 1.26 mM CaCl2, 0.81 mM MgSO4, pH 7.4). Protein concentration was measured by the Bradford method (Bradford, 1976) using Bio-Rad Reagent, with bovine serum albumin as a standard. Membranes were held on ice for up to one hour and used fresh, or flash frozen and stored in liquid nitrogen. Membranes were prepared similarly from CHO cells.\nGalanin Receptors: Binding assays were performed according to the following published methods: human GAL3 (PCT International Publication No. WO 98/15570), human GAL1 (PCT International Publication No. WO 95/2260) human GAL2 (PCT International Publication No. WO 97/26853).\n(§1) Binding data were analyzed using nonlinear regression and statistical techniques available in the GraphPAD Prism package (San Diego, Calif.). Enzymatic assay data were derived from a standard curve of reference compound data."}, "[2]": {"system": "Male Sprague-Dawley rats", "assay": "Rat Forced Swim Test (FST)", "type": "in vivo", "conditions": "for overall profile in the Forced Swim Test (conclusion in words): rat, in vivo"}, "[3]": {"biological_target": "T2, human α2A adrenergic receptor (Homo sapiens, UniProt P08913)", "T2 construct": "expressed in transfected cells", "T2 sequence (P08913 whole entry)": "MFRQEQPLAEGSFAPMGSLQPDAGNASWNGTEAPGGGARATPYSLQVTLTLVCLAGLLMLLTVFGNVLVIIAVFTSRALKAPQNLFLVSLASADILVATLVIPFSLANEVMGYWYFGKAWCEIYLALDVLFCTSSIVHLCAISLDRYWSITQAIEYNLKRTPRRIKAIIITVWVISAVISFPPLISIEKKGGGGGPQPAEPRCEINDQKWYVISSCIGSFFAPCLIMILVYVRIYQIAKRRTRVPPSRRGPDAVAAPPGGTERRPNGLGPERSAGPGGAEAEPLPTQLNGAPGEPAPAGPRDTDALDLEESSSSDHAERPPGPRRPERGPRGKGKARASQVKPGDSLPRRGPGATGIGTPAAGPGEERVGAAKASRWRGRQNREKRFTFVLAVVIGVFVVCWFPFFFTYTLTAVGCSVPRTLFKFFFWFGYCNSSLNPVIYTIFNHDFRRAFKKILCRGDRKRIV", "assay": "Binding at human α2A adrenergic receptor", "conditions": "read-out: hα2A Ki", "excerpt": "(§2) Other receptors: Cell membranes expressing human dopamine D1, D2, D4 and rat D3 receptors were purchased through BioSignal, Inc. (Montreal, Canada). Binding assays using the histamine H1 receptor; dopamine receptors; and α1A, α1B, and α2 adrenergic receptors may be carried out according to the procedures described in U.S. Pat. No. 5,780,485, the disclosure of which is hereby incorporated by reference in its entirety into this application. Binding assays using the dopamine D5 receptor may be carried out according to the procedures described in U.S. Pat. No. 5,882,855, the disclosure of which is hereby incorporated by reference in its entirety into this application. Binding assays for the human α1D adrenergic receptor may be carried out according to the procedures described in U.S. Pat. No. 6,156,518, the disclosure of which is hereby incorporated by reference in its entirety into this application.\nas §1"}, "[4]": {"biological_target": "T3, human α1B adrenergic receptor (Homo sapiens, UniProt P35368)", "T3 construct": "expressed in transfected cells", "T3 sequence (P35368 whole entry)": "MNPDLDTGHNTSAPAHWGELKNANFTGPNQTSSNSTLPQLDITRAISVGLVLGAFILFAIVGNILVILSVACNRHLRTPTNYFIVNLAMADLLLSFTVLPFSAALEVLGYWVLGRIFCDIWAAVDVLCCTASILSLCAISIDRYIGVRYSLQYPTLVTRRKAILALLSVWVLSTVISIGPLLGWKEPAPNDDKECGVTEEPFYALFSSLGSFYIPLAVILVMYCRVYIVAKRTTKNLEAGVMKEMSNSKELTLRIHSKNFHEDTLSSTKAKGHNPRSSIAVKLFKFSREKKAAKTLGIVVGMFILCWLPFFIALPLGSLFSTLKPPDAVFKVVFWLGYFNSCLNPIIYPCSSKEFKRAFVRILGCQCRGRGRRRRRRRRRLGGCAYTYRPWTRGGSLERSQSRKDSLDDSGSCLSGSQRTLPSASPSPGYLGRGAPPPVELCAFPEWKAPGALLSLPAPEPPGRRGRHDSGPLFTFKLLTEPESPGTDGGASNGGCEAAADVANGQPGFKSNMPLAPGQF", "assay": "Binding at human α1B adrenergic receptor", "conditions": "read-out: hα1B Ki", "excerpt": "as §2, §1"}, "[5]": {"biological_target": "T4, human 5HT1D receptor (Homo sapiens, UniProt P28221)", "T4 construct": "expressed in transfected cells", "T4 sequence (P28221 whole entry)": "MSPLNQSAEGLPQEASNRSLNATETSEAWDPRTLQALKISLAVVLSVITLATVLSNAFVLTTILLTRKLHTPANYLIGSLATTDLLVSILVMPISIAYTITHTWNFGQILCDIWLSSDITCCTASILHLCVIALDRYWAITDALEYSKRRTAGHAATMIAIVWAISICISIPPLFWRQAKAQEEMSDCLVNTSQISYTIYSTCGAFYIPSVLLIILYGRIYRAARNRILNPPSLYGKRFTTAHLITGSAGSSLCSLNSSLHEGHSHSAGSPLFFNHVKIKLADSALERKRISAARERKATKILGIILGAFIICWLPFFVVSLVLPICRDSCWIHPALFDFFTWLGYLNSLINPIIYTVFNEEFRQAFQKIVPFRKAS", "assay": "Radioligand binding at human 5HT1D receptor", "conditions": "read-out: h5HT1D Ki", "method": "Human 5HT1B, 5HT1D, 5HT1E, 5HT1F, and 5HT7 ReceDtors: The cell lysates of LM(tk-) clonal cell line stably transfected with the genes encoding each of these 5HT receptor-subtypes were prepared as described above. Cell membranes were suspended in 50 mM Tris-HCl buffer (pH 7.4 at 37° C.) containing 10 mM MgCl2, 0.2 mM EDTA, 10 µM pargyline, and 0.1% ascorbate. […] Nonspecific binding was determined in the presence of 10 μM serotonin. The bound radioligand was separated by filtration through GF/B filters using a cell harvester.\nas §1"}, "[6]": {"conditions": "0.3 mg/kg p.o., single administration 1 hr before 5 min test"}, "[7]": {"conditions": "0.3 mg/kg p.o., single administration 1 hr before 5 min test, listed as EX34"}, "[8]": {"conditions": "1 mg/kg p.o., single administration 1 hr before 5 min test"}, "[9]": {"conditions": "1 mg/kg p.o., single administration 1 hr before 5 min test, listed as EX34"}, "[10]": {"conditions": "3 mg/kg p.o., single administration 1 hr before 5 min test"}, "[11]": {"conditions": "3 mg/kg p.o., single administration 1 hr before 5 min test, listed as EX34"}, "[12]": {"conditions": "10 mg/kg p.o., single administration 1 hr before 5 min test"}, "[13]": {"conditions": "10 mg/kg p.o., single administration 1 hr before 5 min test, listed as EX34"}, "[14]": {"conditions": "1 mg/kg i.p., single injection 1 h before 5 min test"}, "[15]": {"conditions": "3 mg/kg i.p., single injection 1 h before 5 min test"}, "[16]": {"conditions": "10 mg/kg i.p., single injection 1 h before 5 min test"}}, "note": "Read-outs that look alike come from different tables or passages of the source. Marks after values point to notes of the source that are not given here."}
{"smiles": "Cc1ccc(Nc2cc(N3CCCCC3)nc(N3CCN(c4ncccc4C(F)(F)F)CC3)n2)cc1", "note": "[Example 34]", "values": [{"measurement": "GAL3/GAL1 binding ratio (Ki GAL1 divided by Ki GAL3)", "setting": "[1]", "result": 39}, {"measurement": "Climbing", "setting": "[2]; [6]", "result": "3.3 ± 0.7", "unit": "counts"}, {"measurement": "Diving", "setting": "[2]; [6]", "result": "not significantly altered"}, {"measurement": "Immobility", "setting": "[2]; [6]", "result": "significantly decreased immobility"}, {"measurement": "Swimming", "setting": "[2]; [6]", "result": "significant increase in swimming behavior"}, {"measurement": "Diving", "setting": "[2]; [7]", "result": "0.2 ± 0.1", "unit": "counts"}, {"measurement": "Immobility", "setting": "[2]; [7]", "result": "45 ± 1.5^a counts"}, {"measurement": "Swimming", "setting": "[2]; [7]", "result": "11.6 ± 0.9^d counts"}, {"measurement": "Climbing", "setting": "[2]; [8]", "result": "significant increase in climbing"}, {"measurement": "Diving", "setting": "[2]; [8]", "result": "not significantly altered"}, {"measurement": "Immobility", "setting": "[2]; [8]", "result": "significantly decreased immobility"}, {"measurement": "Swimming", "setting": "[2]; [8]", "result": "significant increase in swimming behavior"}, {"measurement": "Climbing", "setting": "[2]; [9]", "result": "5.0 ± 0.8^c counts"}, {"measurement": "Diving", "setting": "[2]; [9]", "result": "0.3 ± 0.2", "unit": "counts"}, {"measurement": "Immobility", "setting": "[2]; [9]", "result": "35 ± 1.9^b counts"}, {"measurement": "Swimming", "setting": "[2]; [9]", "result": "19.6 ± 1.3^d,e counts"}, {"measurement": "Climbing", "setting": "[2]; [10]", "result": "4.3 ± 0.8", "unit": "counts"}, {"measurement": "Diving", "setting": "[2]; [10]", "result": "not significantly altered"}, {"measurement": "Immobility", "setting": "[2]; [10]", "result": "significantly decreased immobility"}, {"measurement": "Swimming", "setting": "[2]; [10]", "result": "significant increase in swimming behavior"}, {"measurement": "Diving", "setting": "[2]; [11]", "result": "0.3 ± 0.3", "unit": "counts"}, {"measurement": "Immobility", "setting": "[2]; [11]", "result": "35 ± 2.0^b counts"}, {"measurement": "Swimming", "setting": "[2]; [11]", "result": "20.8 ± 1.3^d,e counts"}, {"measurement": "Climbing", "setting": "[2]; [12]", "result": "did not significantly alter swimming or climbing"}, {"measurement": "Diving", "setting": "[2]; [12]", "result": "not significantly altered"}, {"measurement": "Immobility", "setting": "[2]; [12]", "result": "did not significantly decrease in immobility"}, {"measurement": "Swimming", "setting": "[2]; [12]", "result": "did not significantly alter swimming or climbing"}, {"measurement": "Climbing", "setting": "[2]; [13]", "result": "2.0 ± 0.4", "unit": "counts"}, {"measurement": "Diving", "setting": "[2]; [13]", "result": "0.4 ± 0.3", "unit": "counts"}, {"measurement": "Immobility", "setting": "[2]; [13]", "result": "49 ± 1.4", "unit": "counts"}, {"measurement": "Swimming", "setting": "[2]; [13]", "result": "8.2 ± 1.2", "unit": "counts"}, {"measurement": "overall profile in the Forced Swim Test (conclusion in words)", "setting": "[2]", "result": "produces an effect in the FST that resembles that of antidepressants"}]}
{"smiles": "O=C1C(=Nc2cccc(C(F)(F)F)c2)c2ccccc2N1c1ccccc1", "note": "[Example 92, 1-PHENYL-3-[[3-(TRIFLUOROMETHYL)PHENYL]IMINO]-1,3-DIHYDRO-2H-INDOL-2-ONE]", "values": [{"measurement": "Ki", "setting": "[3]", "result": 21.9, "unit": "µM"}, {"measurement": "Ki", "setting": "[1]; Table 7", "result": 38, "unit": "nM"}, {"measurement": "Ki", "setting": "[1]; Table 9", "result": 38, "unit": "nM"}, {"measurement": "Ki", "setting": "[4]", "result": "> 50", "unit": "µM"}, {"measurement": "Ki", "setting": "[5]", "result": 32.1, "unit": "µM"}, {"measurement": "Diving", "setting": "[2]; [14]", "result": "0.6±0.2", "unit": "counts"}, {"measurement": "Immobility", "setting": "[2]; [14]", "result": "28 ± 1.0", "unit": "counts"}, {"measurement": "Swimming", "setting": "[2]; [14]", "result": "20±1.1", "unit": "counts"}, {"measurement": "Diving", "setting": "[2]; [15]", "result": "0.6±0.3", "unit": "counts"}, {"measurement": "Swimming", "setting": "[2]; [15]", "result": "21±0.9", "unit": "counts"}, {"measurement": "Diving", "setting": "[2]; [16]", "result": "0.5±0.5", "unit": "counts"}, {"measurement": "Swimming", "setting": "[2]; [16]", "result": "18±0.9", "unit": "counts"}, {"measurement": "Diving", "setting": "[2]; 30 mg/kg i.p., single injection 1 h before 5 min test", "result": "0.2±0.2", "unit": "counts"}, {"measurement": "overall profile in the Forced Swim Test (conclusion in words)", "setting": "[2]", "result": "has antidepressant-like properties"}]}
